Source: ChEMBL document CHEMBL3885861, “Open TG-GATES”

Species on record: Rattus norvegicus
Experiment: Open TG-GATES - Regimen: Daily Repeat
Format: toxicity, organism-based, Sprague-Dawley
Design: regimen Daily Repeat, gender Male, age 6 weeks
Conditions: in vivo, po, 600 mg/kg, route gavage, dose level High; for APTT / Bas / Eos / Fbg / Hb / Ht / Lym / MCH / MCHC / MCV / Mono / Neu / PT / Plat / RBC / Ret / WBC: tissue Blood; for KIDNEY_L / KIDNEY_R / KIDNEY_TOTAL: tissue Kidney; for LIVER: tissue Liver; for A/G / ALP / ALT / AST / BUN / CRE / Ca / Cl / DBIL / GLC / IP / K / LDH / Na / PL / RALB / TBIL / TC / TG / TP / gamma-GTP: tissue Plasma

CCOC(=O)[C@H](CCc1ccccc1)N[C@@H](C)C(=O)N1CCC[C@H]1C(=O)O
TERMINAL_BW (72 h, time 3 day): 244.3 g | APTT (72 h, time 3 day): 16 s | Bas (72 h, time 3 day): 0% | Eos (72 h, time 3 day): 1.4% | Fbg (72 h, time 3 day): 232.8 mg/dL | Hb (72 h, time 3 day): 13 g/dL | Ht (72 h, time 3 day): 38.8% | Lym (72 h, time 3 day): 79.6% | MCH (72 h, time 3 day): 20.9 pg | MCHC (72 h, time 3 day): 33.4% | MCV (72 h, time 3 day): 62.5 fL | Mono (72 h, time 3 day): 6.6% | Neu (72 h, time 3 day): 12.2% | PT (72 h, time 3 day): 11.6 s | Plat (72 h, time 3 day): 116.5 x10_4/uL | RBC (72 h, time 3 day): 620.6 x10_4/ul | Ret (72 h, time 3 day): 4.9% | WBC (72 h, time 3 day): 116.9 x10_2/uL | KIDNEY_L (72 h, time 3 day): 1 g | KIDNEY_R (72 h, time 3 day): 1.1 g | KIDNEY_TOTAL (72 h, time 3 day): 2.1 g | LIVER (72 h, time 3 day): 11.4 g | A/G (72 h, time 3 day): 1.8 | ALP (72 h, time 3 day): 892.2 IU/L | ALT (72 h, time 3 day): 33.2 IU/L | AST (72 h, time 3 day): 58.2 IU/L | BUN (72 h, time 3 day): 25.2 mg/dL | CRE (72 h, time 3 day): 0.5 mg/dL | Ca (72 h, time 3 day): 11 mg/dL | Cl (72 h, time 3 day): 104 meq/L | DBIL (72 h, time 3 day): 0.02 mg/dL | GLC (72 h, time 3 day): 193.2 mg/dL | IP (72 h, time 3 day): 8.9 mg/dL | K (72 h, time 3 day): 4.9 meq/L | LDH (72 h, time 3 day): 83.6 IU/L | Na (72 h, time 3 day): 138.8 meq/L | PL (72 h, time 3 day): 154.2 mg/dL | RALB (72 h, time 3 day): 3.8 g/dL | TBIL (72 h, time 3 day): 0.3 mg/dL | TC (72 h, time 3 day): 85.8 mg/dL | TG (72 h, time 3 day): 93.6 mg/dL | TP (72 h, time 3 day): 5.9 g/dL | gamma-GTP (72 h, time 3 day): 1.4 IU/L | TERMINAL_BW ([…], time 7 day): 266.1 g | TERMINAL_BW ([…], time 14 day): 298.8 g | TERMINAL_BW ([…], time 28 day): 358.5 g | APTT ([…], time 7 day): 15.8 s | Bas ([…], time 7 day): 0% | Eos ([…], time 7 day): 1.2% | Fbg ([…], time 7 day): 228.2 mg/dL | Hb ([…], time 7 day): 12.5 g/dL | Ht ([…], time 7 day): 37.8% | Lym ([…], time 7 day): 78.2% | MCH ([…], time 7 day): 21.1 pg | MCHC ([…], time 7 day): 33.2% | MCV ([…], time 7 day): 63.8 fL | Mono ([…], time 7 day): 6.4% | Neu ([…], time 7 day): 14.8% | PT ([…], time 7 day): 11.7 s | Plat ([…], time 7 day): 110 x10_4/uL | RBC ([…], time 7 day): 593.8 x10_4/ul | Ret ([…], time 7 day): 3.8% | WBC ([…], time 7 day): 113.9 x10_2/uL | APTT ([…], time 14 day): 16.5 s | Bas ([…], time 14 day): 0% | Eos ([…], time 14 day): 1.2% | Fbg ([…], time 14 day): 232.2 mg/dL | Hb ([…], time 14 day): 12.6 g/dL | Ht ([…], time 14 day): 37.8% | Lym ([…], time 14 day): 80% | MCH ([…], time 14 day): 20.7 pg | MCHC ([…], time 14 day): 33.4% | MCV ([…], time 14 day): 61.9 fL | Mono ([…], time 14 day): 4.2% | Neu ([…], time 14 day): 14.4% | PT ([…], time 14 day): 11.7 s | Plat ([…], time 14 day): 102.3 x10_4/uL | RBC ([…], time 14 day): 611.2 x10_4/ul | Ret ([…], time 14 day): 3.3% | WBC ([…], time 14 day): 122.6 x10_2/uL | APTT ([…], time 28 day): 16 s | Bas ([…], time 28 day): 0% | Eos ([…], time 28 day): 1% | Fbg ([…], time 28 day): 249.8 mg/dL | Hb ([…], time 28 day): 13.9 g/dL | Ht ([…], time 28 day): 41.5% | Lym ([…], time 28 day): 84.2% | MCH ([…], time 28 day): 19.4 pg | MCHC ([…], time 28 day): 33.5% | MCV ([…], time 28 day): 57.9 fL | Mono ([…], time 28 day): 4.8% | Neu ([…], time 28 day): 9.8% | PT ([…], time 28 day): 11.6 s | Plat ([…], time 28 day): 114.3 x10_4/uL | RBC ([…], time 28 day): 717.4 x10_4/ul | Ret ([…], time 28 day): 5% | WBC ([…], time 28 day): 148.4 x10_2/uL | KIDNEY_L ([…], time 7 day): 1.2 g | KIDNEY_R ([…], time 7 day): 1.3 g | KIDNEY_TOTAL ([…], time 7 day): 2.5 g | KIDNEY_L ([…], time 14 day): 1.3 g | KIDNEY_R ([…], time 14 day): 1.3 g | KIDNEY_TOTAL ([…], time 14 day): 2.7 g | KIDNEY_L ([…], time 28 day): 1.7 g | KIDNEY_R ([…], time 28 day): 1.7 g | KIDNEY_TOTAL ([…], time 28 day): 3.4 g | LIVER ([…], time 7 day): 12.4 g | LIVER ([…], time 14 day): 13 g | LIVER ([…], time 28 day): 14.8 g | A/G ([…], time 7 day): 1.9 | ALP ([…], time 7 day): 795.8 IU/L | ALT ([…], time 7 day): 26.8 IU/L | AST ([…], time 7 day): 59 IU/L | BUN ([…], time 7 day): 40.4 mg/dL | CRE ([…], time 7 day): 0.6 mg/dL | Ca ([…], time 7 day): 10.6 mg/dL | Cl ([…], time 7 day): 105.2 meq/L | DBIL ([…], time 7 day): 0.002 mg/dL | GLC ([…], time 7 day): 199.6 mg/dL | IP ([…], time 7 day): 8 mg/dL | K ([…], time 7 day): 5.1 meq/L | LDH ([…], time 7 day): 97 IU/L | Na ([…], time 7 day): 137.4 meq/L | PL ([…], time 7 day): 144 mg/dL | RALB ([…], time 7 day): 3.7 g/dL | TBIL ([…], time 7 day): 0.4 mg/dL | TC ([…], time 7 day): 80.6 mg/dL | TG ([…], time 7 day): 85.2 mg/dL | TP ([…], time 7 day): 5.7 g/dL | gamma-GTP ([…], time 7 day): 1.2 IU/L | A/G ([…], time 14 day): 1.8 | ALP ([…], time 14 day): 654.8 IU/L | ALT ([…], time 14 day): 26.8 IU/L | AST ([…], time 14 day): 58.6 IU/L | BUN ([…], time 14 day): 38.2 mg/dL | CRE ([…], time 14 day): 0.6 mg/dL | Ca ([…], time 14 day): 10.9 mg/dL | Cl ([…], time 14 day): 104.4 meq/L | DBIL ([…], time 14 day): 0.006 mg/dL | GLC ([…], time 14 day): 191 mg/dL | IP ([…], time 14 day): 8.9 mg/dL | K ([…], time 14 day): 4.8 meq/L | LDH ([…], time 14 day): 90.4 IU/L | Na ([…], time 14 day): 137 meq/L | PL ([…], time 14 day): 149 mg/dL | RALB ([…], time 14 day): 3.9 g/dL | TBIL ([…], time 14 day): 0.3 mg/dL | TC ([…], time 14 day): 78.8 mg/dL | TG ([…], time 14 day): 81.2 mg/dL | TP ([…], time 14 day): 6.1 g/dL | gamma-GTP ([…], time 14 day): 1.2 IU/L | A/G ([…], time 28 day): 1.7 | ALP ([…], time 28 day): 553.2 IU/L | ALT ([…], time 28 day): 23.8 IU/L | AST ([…], time 28 day): 65.2 IU/L | BUN ([…], time 28 day): 44 mg/dL | CRE ([…], time 28 day): 0.7 mg/dL | Ca ([…], time 28 day): 10.9 mg/dL | Cl ([…], time 28 day): 105.2 meq/L | DBIL ([…], time 28 day): 0.062 mg/dL | GLC ([…], time 28 day): 195.4 mg/dL | IP ([…], time 28 day): 7.4 mg/dL | K ([…], time 28 day): 4.9 meq/L | LDH ([…], time 28 day): 100.2 IU/L | Na ([…], time 28 day): 137.6 meq/L | PL ([…], time 28 day): 150.2 mg/dL | RALB ([…], time 28 day): 3.9 g/dL | TBIL ([…], time 28 day): 0.3 mg/dL | TC ([…], time 28 day): 75.4 mg/dL | TG ([…], time 28 day): 97.8 mg/dL | TP ([…], time 28 day): 6.1 g/dL | gamma-GTP ([…], time 28 day): 1.8 IU/L
